Results: patent US20070053883A1, “Neuronal cell lineages and methods of production thereof” (THE JOHNS HOPKINS UNIVERSITY, priority 2003, published 2007)
“Also recorded” adds a separate entry of the source.

Key:
[1] = system: Hh pathway; test: Shh signaling assay in NIH3T3 Shh-LIGHT Z3 cells (Gli luciferase reporter); assay type: cell-based
Procedure: (§1) Shh signaling assays. Shh signaling assays were carried out as described^16 in primary fibroblasts lacking functional Dhcr7, Sc5d or Ptch and in NIH3T3 fibroblasts. Dhcr7^−/− and Dhcr7^+/− MEFs were generated from embryonic day-9 mutant mice and Sc5h1 and Sc5d^−/− and Sc5d^+/− MEFs from embryonic day-14.5 mutant mice. We generated a reporter construct with firefly luciferase and Gli (pGL3-8xGli-luciferase) by cloning eight tandem Gli-binding sites and a lens crystallin promoter from the 8xGli-BS Luc construct^22 into the pGL3-Basic vector (Promega). We determined relative Hh pathway activity in Dhcr7^−/−, Dhcr7^+/−, Sc5d^+/+ and Sc5d^+/− MEFs from the expression of transiently transfected pGL3-8xGli-luciferase and control Renilla luciferase (pRL-SV40; Promega) vectors. In Ptch^−/− MEFs, we normalized β-galactosidase activity expressed under the control of the Ptch promoter for protein levels to determine relative Hh pathway activity. In the NIH3T3 cell clone Shh-LIGHT Z3, we normalized 8xGli-BS luciferase activity for β-galactosidase activity from stably transfected vectors (8xGli-BS Luc^22 and piZ-lacZ). We established clonal sublines of Shh-LIGHT Z3 by cotransfecting either Smo tagged with Myc epitope or SmoA1 with vector encoding G418 resistance (pGT; Invivogen). All transfections were done with Fugene 6. We carried out cyclodextrin treatments for 30 min with methyl-β-cyclodextrin (Sigma) dissolved in Dulbecco's modified Eagle medium, preceded and followed by two washes with phosphate-buffered saline. Fetal bovine serum was depleted of lipids as described^23. We purchased compactin as an active sodium salt form of mevastatin (Biomol) and dissolved it in dimethylsulfoxide.
(§2) The combination of transient cyclodextrin treatment followed by inhibition of cholesterol synthesis blocked the response to ShhNp, whereas neither treatment alone did so. FIG. 4c, Hh path way inhibition persisted for 72 h after cyclodextrin treatment. The 3-d recovery period was intended to allow replenishment of non-sterol cellular components depleted by transient cyclodextrin treatment while maintaining sterol depletion with HMG-CoA reductase inhibition by compactin. FIG. 4d, Total cellular sterols from parallel cultures of NIH3T3 (c, 36 h), Dhcr7^−/− and Sc5d^−/− (FIG. 3b) MEFs were determined by gas chromatography-mass spectrometry analysis of extracted lipids and plotted against the relative Shh pathway activity. Bars represent one standard error (quadruplicate wells).

[2] = system: Hh pathway; test: Response of cells to ShhNp protein under sterol-specific perturbations (data not shown); assay type: cell-based
From the text: Cyclodextrins form complexes with hydrophobic compounds including proteins and phospholipids in addition to sterols^6.

[3] = system: chick embryos; test: Cyclodextrin treatment of chick embryos in ovo, facial features by scanning electron microscopy; assay type: in vivo; conditions: 375 μM cyclodextrin in ovo, applied after 15 h of incubation, early-primitive-streak stage, embryonic day 5
Procedure: (§3) Chick embryos. Methyl-β-cyclodextrin (200 μl of a 10% w/v solution in L-15 medium (Sigma and Life Technologies)) was applied to windowed, fertile chick eggs (White Leghorn) after 15 h of incubation. For an average egg volume of 50 ml, the final concentration of cyclodextrin was 375 μM. After 4 d of further incubation, we processed the embryos for scanning electron microscopy. The neural plate and epidermal ectoderm was dissected from stage 9-10 chick embryos, cultured them in collagen and induced them with purified Sonic Hh N-terminal peptide ShbN^21 as described^3. Methyl-β-cyclodextrin was added to the chick explant cultures 4 h after induction with ShhN was initiated.
To determine how cholesterol may affect Hh signaling in embryonic development, chick embryos were exposed to cyclodextrin, a cyclic oligosaccharide that forms non-covalent complexes with sterols and can be used to extract and deplete cholesterol from living cells. […] The most severely affected embryos developed a proboscis-like structure that phenocopies the nasal rudiments of mouse embryos that are homozygous with respect to mutations in the gene Sonic hedgehog (Shh; ref. 8).
FIG. 2a provides scanning electron micrographs of facial features at embryonic day 5 of a control (control) chick embryo and of embryos exposed to 375 μM cyclodextrin (CD). […]

[4] = system: chick neural-plate explants; test: Chick neural-plate explants induced with ShhN, stained for HNF3β or lSL1; assay type: cell-based
Procedure: as §3
It was further investigated whether SSH signaling in embryonic tissues by exposing chick neural-plate explants to recombinant Shh protein (ShhN, 30 nm) in the presence of cyclodextrin (FIG. 2b). FIG. 2b provides confocal microscope images of stage 9-10 chick embryo ectoderm dissected from a region of the neural plate intermediate to the notochord and roof plate and just rostral to Hensen's node. Explants were cultured for 48 h in collagen and stained for HNF3β or lSL1, as indicated.

[5] = system: neural-crest cells; test: BMP-induced migration of neural-crest cells from dorsal neural plate explants; assay type: cell-based, chick; conditions: 400 μM cyclodextrin alone, 48 h of culture
Procedure: as §3
Dorsal neural plate progenitor cells and an endogenous source of BMP, the adjacent epidermal ectoderm, were dissected from a region just rostral to Hensen's node in stage 9-10 chick embryos.

[6] = system: Shh autoprocessing; test: Analysis of Shh protein biogenesis (autoprocessing) in MEFs; assay type: cell-based, mouse; conditions: Dhcr7−/− or Sc5d−/− MEFs; transient (30 min, 3.8 mM) cyclodextrin treatment, lipid-depleted serum
Procedure: Analysis of Shh protein biogenesis. MEFs were plated in a 10-cm^2 dish (Falcon) and transfected them (Fugene 6, Roche) with a full length Shh expression construct (pRK5-Shh, 5 μg) when the cells were roughly 75% confluent. The next day, we changed the culture medium (Dulbecco's modified Eagle medium with 10% fetal bovine serum) to contain either 0.5% fetal bovine serum, 0.5% lipid-depleted serum or lipid-depleted serum after a 30-min treatment with 3.8 mM methyl-β-cyclodextrin (Sigma). After an additional 24 h in culture, we lysed the MEFs in RIPA buffer (50 mM Tris-C1, pH 7.5, 150 mM NaCl, 1% Nonidet P-40, 0.5% sodium deoxycholate, 1 mM EDTA, 1 μg ml^−1 leupeptin, 1 μg ml aprotinin^−1, 0.2 mM phenylmethylsulfonyl fluoride), immunoprecipitated Shh protein from the cell lysates with a monoclonal antibody that recognizes the N-terminal signaling domain (5E1, Developmental Studies Hybridoma Bank) and immunoblotted them with a polyclonal antibody preparation (JH134). […]

[7] = system: Hh pathway; test: Shh signaling assay in Dhcr7 and Sc5d MEFs (Hh-responsive firefly luciferase reporter); assay type: cell-based, mouse
Procedure: Shh signaling assays. Shh signaling assays were carried out as described^16 in primary fibroblasts lacking functional Dhcr7, Sc5d or Ptch and in NIH3T3 fibroblasts. Dhcr7^−/− and Dhcr7^+/− MEFs were generated from embryonic day-9 mutant mice and Sc5h1 and Sc5d^−/− and Sc5d^+/− MEFs from embryonic day-14.5 mutant mice. We generated a reporter construct with firefly luciferase and Gli (pGL3-8xGli-luciferase) by cloning eight tandem Gli-binding sites and a lens crystallin promoter from the 8xGli-BS Luc construct^22 into the pGL3-Basic vector (Promega). We determined relative Hh pathway activity in Dhcr7^−/−, Dhcr7^+/−, Sc5d^+/+ and Sc5d^+/− MEFs from the expression of transiently transfected pGL3-8xGli-luciferase and control Renilla luciferase (pRL-SV40; Promega) vectors. […]
The effect of cholesterol depletion on responsiveness of Dhcr7^+/− (gray bars), Dhcr7^−/− (maroon bars), Sc5d^+/− (gray bars), and Sc5d^−/− (green bars) MEFs to Shh signaling was assayed by transfection with a Hh-responsive firefly luciferase reporter and treatment with purified ShhNp (10 nM). […] For each culture condition, normalized firefly luciferase activity from control and ShhNp treated cells was used to calculate the relative induction, expressed as a percentage of the Shh induction achieved in MEFs cultured in full serum. […]

[8] = system: Hh pathway downstream of Ptch; test: Constitutive Hh pathway activity in Ptch−/− MEFs (β-galactosidase); assay type: cell-based, mouse; conditions: transient treatment with increasing concentrations of cyclodextrin in combination with compactin
Procedure: as §1, with “We carried out cyclodextrin treatments for 30 min with methyl-β-cyclodextrin (Sigma) dissolved in Dulbecco's modified Eagle medium, preceded and followed by two washes with phosphate-buffered saline. Fetal bovine serum was depleted of lipids as described^23. We purchased compactin as an active sodium salt form of mevastatin (Biomol) and dissolved it in dimethylsulfoxide.” left out

[9] = target: T1, Smo (Mus musculus, UniProt P56726); test: Shh pathway activation by overexpression of wild-type Smo in NIH3T3 cells; assay type: cell-based; conditions: cholesterol depletion by cyclodextrin and compactin treatments
T1 construct: expressed in transfected cells
Procedure: as §1, with “We carried out cyclodextrin treatments for 30 min with methyl-β-cyclodextrin (Sigma) dissolved in Dulbecco's modified Eagle medium, preceded and followed by two washes with phosphate-buffered saline. Fetal bovine serum was depleted of lipids as described^23. We purchased compactin as an active sodium salt form of mevastatin (Biomol) and dissolved it in dimethylsulfoxide.” left out

[10] = target: T2, SmoA1 (Mus musculus, UniProt P56726, W539L); test: Shh pathway activity driven by oncogenic Smo (SmoA1, W539L) in NIH3T3 cells; assay type: cell-based; conditions: cholesterol depletion by cyclodextrin and compactin treatments
T2 construct: expressed in transfected cells
Procedure: as §1, with “We carried out cyclodextrin treatments for 30 min with methyl-β-cyclodextrin (Sigma) dissolved in Dulbecco's modified Eagle medium, preceded and followed by two washes with phosphate-buffered saline. Fetal bovine serum was depleted of lipids as described^23. We purchased compactin as an active sodium salt form of mevastatin (Biomol) and dissolved it in dimethylsulfoxide.” left out

[11] = system: Dhcr7−/− and Sc5d−/− MEFs; test: Sterol analysis of MEFs cultured in parallel with signaling assays; assay type: cell-based, mouse; conditions: lipid-depleted serum
Procedure: Sterol analysis. Neutral sterols were extracted and analyzed as described^24 from replicate wells of MEFs cultured in parallel with those used for signaling assays.
as §2

[12] = 400 μM cyclodextrin, 30 nM ShhN, 48 h

T2 sequence (P56726 33-793 W539L): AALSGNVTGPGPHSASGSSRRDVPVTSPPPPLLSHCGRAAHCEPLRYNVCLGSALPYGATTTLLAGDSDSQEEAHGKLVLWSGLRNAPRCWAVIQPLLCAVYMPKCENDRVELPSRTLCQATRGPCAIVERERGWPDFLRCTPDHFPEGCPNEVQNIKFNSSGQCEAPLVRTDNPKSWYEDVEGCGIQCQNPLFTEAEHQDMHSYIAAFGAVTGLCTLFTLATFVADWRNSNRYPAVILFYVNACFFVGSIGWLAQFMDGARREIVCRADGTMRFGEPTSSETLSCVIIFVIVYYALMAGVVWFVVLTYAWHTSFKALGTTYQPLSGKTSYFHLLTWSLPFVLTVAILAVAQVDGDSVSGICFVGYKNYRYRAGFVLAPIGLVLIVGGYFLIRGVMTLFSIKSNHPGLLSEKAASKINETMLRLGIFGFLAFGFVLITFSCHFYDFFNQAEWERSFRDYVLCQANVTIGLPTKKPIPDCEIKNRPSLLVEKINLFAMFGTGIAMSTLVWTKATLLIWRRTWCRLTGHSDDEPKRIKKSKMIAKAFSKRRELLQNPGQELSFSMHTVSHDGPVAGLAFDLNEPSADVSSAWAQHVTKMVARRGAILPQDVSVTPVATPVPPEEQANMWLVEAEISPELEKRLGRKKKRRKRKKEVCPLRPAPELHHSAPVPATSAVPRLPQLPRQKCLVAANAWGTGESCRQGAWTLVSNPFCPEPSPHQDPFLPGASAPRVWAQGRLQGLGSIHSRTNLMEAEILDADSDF
T1 sequence (P56726 33-793): as the sequence (P56726 33-793 W539L) above, with L507W counted along it

Compound: CC[C@H](C)C(=O)O[C@H]1CCC=C2C=C[C@H](C)[C@H](CC[C@@H]3C[C@@H](O)CC(=O)O3)[C@H]21 [compactin]
- ShhNp response under compactin alone ([1]; continuous exposure to compactin): not affected

Compound: CCCCC[C@@H](O)[C@H]1C(=O)O[C@H](C)[C@@H](O)/C=C/C=C/C=C/C=C/C=C(\C)[C@@H](O)C[C@H](O)C[C@H](O)C[C@H](O)C[C@H](O)C[C@H](O)C[C@@H]1O [filipin]
- response of cells to ShhNp protein [2]: blocked

Compound: C[C@@H]1[C@H](O)[C@@H](C)/C=C/C=C/CC/C=C/C=C/C=C/C=C/C(O[C@H]2O[C@H](C)[C@@H](O)[C@H](N)[C@@H]2O)CC2O[C@](O)(CC(O)C(O)CCC(O)CC(O)CC(O)CC(=O)O[C@H]1C)CC(O)C2C(=O)O (stereo partly shown) [nystatin]
- response of cells to ShhNp protein [2]: blocked

Compound: Methyl-β-cyclodextrin
- developmental malformation of facial and midline structures [3]: variable loss of midline tissues
- developmental malformation of facial and midline structures ([3]; listed as Cyclodextrin): variable loss of the frontonasal process and other midline structures; also recorded: holoprosencephaly
- HNF3β and lSL1 marker expression ([4]; 200 μM cyclodextrin, 30 nM ShhN, 48 h): both HNF3μ and lSL1 were expressed
- high-threshold response to ShhN (HNF3β) [4, 12]: blocked
- lSL1 expression (intermediate-threshold response, motor-neuron fate) [4, 12]: substantially uniform expression of lSL1
- differentiation of neural plate explant cells as motor neurons ([4]; 400 μM β-methyl CD in conjunction with 30 nM ShhN): all cells
- cellular response to Shh protein (FIG. 2b) ([4]; cyclodextrin treatment, concentration not given in legend): inhibited the cellular response to Shh protein
- BMP-induced migration of neural-crest cells [5]: did not inhibit
- Shh autoprocessing [6]: no observable effect
- ability to respond to Shh signal ([7]; Dhcr7 and Sc5d mutant MEFs, transient 30-min cyclodextrin, lipid-depleted medium, ShhNp 10 nM): clear deficiencies in their ability to respond to Shh signal
- response to ShhNp stimulation ([7]; cells heterozygous for Dhcr7 and Sc5d mutations, all growth conditions incl. transient cyclodextrin): normal response
- inhibition of Shh signal response ([1]; continuous treatment with 500 μM cyclodextrin): about 50%
- inhibition of Shh signal response ([1]; continuous treatment with 2 mM cyclodextrin): nearly complete inhibition
- response to Shh signaling under chronic cyclodextrin ([1]; cyclodextrin in culture medium for the duration of ShhNp induction, comparable to 5 μM cyclopamine): dose dependent manner; also recorded: inhibited
- Shh signal response, transient cyclodextrin combined with continuous compactin ([1]; transient cyclodextrin before ShhNp induction, then compactin during induction): blocked; also recorded: inhibited
- persistence of Hh pathway inhibition after cyclodextrin treatment ([1]; transient cyclodextrin, sterol depletion maintained with compactin): 72 h
- ShhNp response after transient cyclodextrin alone ([1]; transient treatment for 30 minutes before ShhNp, even at 15 mM cyclodextrin): did not affect response
- constitutive Hh pathway activity in Ptch−/− fibroblasts [8]: dose-dependent reduction
- constitutive Hh pathway activity in Ptch−/− fibroblasts ([8]; listed as Cyclodextrin): blocked
- Shh pathway activation by overexpressed wild-type Smo [9]: inhibited
- Shh pathway activity driven by SmoA1 [10]: resistant to inhibition
- sterol levels after initial transient cyclodextrin treatment, needed to affect pathway response [11]: below 40 μg mg^−1 protein
